Assay results from publication PMC3206494, “Discovery of potent, novel, non-toxic anti-malarial compounds via quantum modelling, virtual screening and in vitro experimental validation” (Malaria Journal, 2011).
pIC50: −log10 of the molar value. Where two headings read alike, the source gives them in different places.

Assays:
[1] = system: P. falciparum; assay: In vitro anti-malarial activity, [3H]-hypoxanthine incorporation assay; type: cell-based; settings: Plasmodium falciparum; for IC50: read-out: Average Anti-malarial Activity (concentration corresponding to 50% inhibition); for pIC50: read-out: IC50 (anti-malarial activity)
Protocol: The in vitro anti-malarial activity was measured using the [3H]-hypoxanthine incorporation assay with various strains of P. falciparum (Roche). Results were expressed as the concentration corresponding to 50% inhibition. The anti-malarial assays were performed at the Swiss Tropical Institute, Basel, Switzerland.

[2] = system: mammalian cytotoxicity; assay: Toxicity assay, colorimetric MTT assay (mammalian cytotoxicity); type: cell-based; settings: data from two independent assays
Protocol: Toxicity was determined by using the colorimetric 3-(4,5-dimethylthiazol-2-yl)-2,5-diphenyltetrazoliumbromide (MTT) assay. The toxicity assays were performed at the Swiss Tropical Institute, Basel, Switzerland.

[3] = Solubility in DMSO (footnote to Table 2); type: physicochemical; design: key: *: Not fully soluble in DMSO; settings: footnote mark on the anti-malarial activity value
From the text: Table 2 Summary of anti-malarial activity and cytotoxicity | column: Average Anti-malarial Activity**(ng/ml)

[4] = P. falciparum, in vitro, data from two independent assays

Structure (SMILES) | IC50 [1, 4] | pIC50 ([1]; P. falciparum, in vitro) | Average Cytotoxicity [2] | further results
CC(C)(C)CC(C)(C)Cc1ccc(OCCOCC[N+](C)(C)Cc2ccccc2)cc1 [GR-M011] | 0.086 µg/mL | 6.73 | 3250 ng/mL | 
Cc1ccc(Cn2cc(CCC(=O)NCCCN3CC(C)CC(C)C3)c3ccccc32)cc1 (stereo not shown) [GR-M007] | 0.446 µg/mL | 6.00 | 10420 ng/mL | 
Cc1ccc2c(c1)N(CCCC(=O)NCCCN1CCC(Cc3ccccc3)CC1)C(=O)CO2 [GR-M006] | 1.63 µg/mL | 5.45 |  | 
CCN(CC)CCCC(C)Nc1ccnc2cc(Cl)ccc12 (stereo not shown) [chloroquine, reference compound] |  |  |  | IC50 [1]: 0.0042 µg/mL; pIC50 [1]: 7.89
O=CN1CCN(CC(O)COc2ccc(OCC(O)CN3CCN(C=O)CC3)cc2)CC1 (stereo not shown) [GR-M003] |  | < 4.70 |  | 
CC(NC(=O)CN1CCCN(CC(=O)NC(C)(C)C)CC1)c1ccc2c(c1)CCCC2 (stereo not shown) [GR-M002] | 5.38 µg/mL | 4.90 |  | 
CC(C)(C)c1cnnn1-c1ccc(C=Cc2ccc(C=Cc3ccc4ccccc4n3)cc2)cc1 [GR-M001] |  | < 4.70 |  | Solubility in DMSO [3]: *
CC1=C(CCC(C)N(C)Cc2ccc(OCCCN3CCCC3)cc2)C(C)(C)CCC1 (stereo not shown) [GR-M010] | 0.172 µg/mL | 6.48 | 4860 ng/mL | 
Cc1ccc(C)c(NCC(O)COc2ccc(OCC(O)CNc3cc(C)ccc3C)cc2)c1 (stereo not shown) [GR-M004] | 4.78 µg/mL | 4.99 |  | 
Cc1cccc[n+]1CCCCCCCCCC[n+]1ccccc1C [GR-M009] | 0.013 µg/mL | 7.57 |  | 
Cc1cccc(C)c1OCCOCC(O)CN1CCN(Cc2ccc3c(c2)OCO3)CC1 (stereo not shown) [GR-M005] | 9.74 µg/mL | 4.72 |  | 
COc1cc([C@@H]2c3cc4c(cc3[C@H](O)[C@H]3COC(=O)[C@H]23)OCO4)cc(OC)c1OC [Podophyllotoxin, reference compound] |  |  | 9.5 ng/mL | 
